Values quoted from earlier work, collected in US20210008095A1, “METHODS FOR TREATING MUSCULAR DYSTROPHY” (Sarepta Therapeutics, Inc., priority 2015, published 2021).

Columns and labels:
[1] = system: patient cells; conditions: cited from earlier work
[2] = system: mouse model of DMD; conditions: cited from earlier work

O=C1CN(/N=C/c2ccc(-c3ccc([N+](=O)[O-])cc3)o2)C(O)=N1 [dantrolene]
effect on antisense-mediated exon skipping [1]: enhance antisense-mediated exon skipping
effect on antisense-mediated exon skipping [2]: enhance antisense-mediated exon skipping
